Usually EC50 stands for the concentration needed to bring the measured effect to its halfway point. Higher therefore signals lower potency in that assay.

T1 sequence (P13569 whole entry F508del/G551D): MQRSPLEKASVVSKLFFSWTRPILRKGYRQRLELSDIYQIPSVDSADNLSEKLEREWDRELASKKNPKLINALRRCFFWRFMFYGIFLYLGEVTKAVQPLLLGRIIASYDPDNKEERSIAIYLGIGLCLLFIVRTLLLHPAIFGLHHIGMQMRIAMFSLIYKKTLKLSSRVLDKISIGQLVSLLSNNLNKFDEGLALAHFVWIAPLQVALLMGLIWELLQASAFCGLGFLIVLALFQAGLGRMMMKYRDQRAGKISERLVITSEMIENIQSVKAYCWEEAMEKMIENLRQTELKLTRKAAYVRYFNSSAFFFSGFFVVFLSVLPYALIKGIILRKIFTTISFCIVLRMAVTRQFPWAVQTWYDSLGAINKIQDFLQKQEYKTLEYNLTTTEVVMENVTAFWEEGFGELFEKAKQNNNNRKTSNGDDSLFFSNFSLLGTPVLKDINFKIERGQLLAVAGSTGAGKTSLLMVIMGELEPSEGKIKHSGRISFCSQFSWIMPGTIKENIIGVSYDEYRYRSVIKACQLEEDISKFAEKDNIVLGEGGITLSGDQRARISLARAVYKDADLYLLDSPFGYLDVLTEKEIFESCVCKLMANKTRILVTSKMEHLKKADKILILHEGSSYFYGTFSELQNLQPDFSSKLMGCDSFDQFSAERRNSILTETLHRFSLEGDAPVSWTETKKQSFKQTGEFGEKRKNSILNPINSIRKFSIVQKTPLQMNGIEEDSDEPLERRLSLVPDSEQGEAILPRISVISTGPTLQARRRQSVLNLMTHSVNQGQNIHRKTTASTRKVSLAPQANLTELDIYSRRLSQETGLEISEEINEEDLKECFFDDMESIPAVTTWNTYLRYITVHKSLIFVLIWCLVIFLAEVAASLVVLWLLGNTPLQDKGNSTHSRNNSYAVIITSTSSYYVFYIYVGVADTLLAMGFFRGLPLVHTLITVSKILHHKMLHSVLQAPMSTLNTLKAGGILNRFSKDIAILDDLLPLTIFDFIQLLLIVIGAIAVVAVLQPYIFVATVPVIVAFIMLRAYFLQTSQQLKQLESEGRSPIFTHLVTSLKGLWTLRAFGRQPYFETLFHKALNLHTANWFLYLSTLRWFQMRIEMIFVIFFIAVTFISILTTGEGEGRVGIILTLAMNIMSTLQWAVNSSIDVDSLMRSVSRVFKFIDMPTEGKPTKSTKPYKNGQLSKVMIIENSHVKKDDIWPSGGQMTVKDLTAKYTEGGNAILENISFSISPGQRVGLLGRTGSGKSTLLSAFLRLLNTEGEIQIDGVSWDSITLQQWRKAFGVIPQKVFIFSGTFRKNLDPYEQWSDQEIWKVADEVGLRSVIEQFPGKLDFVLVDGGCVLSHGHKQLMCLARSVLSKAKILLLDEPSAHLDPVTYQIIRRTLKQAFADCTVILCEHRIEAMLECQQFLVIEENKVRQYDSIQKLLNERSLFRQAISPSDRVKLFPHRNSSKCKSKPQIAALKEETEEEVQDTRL
Chain of ΔF508 CFTR (P13569 with tags, fused parts or gaps DEL508-508): as the sequence (P13569 whole entry F508del/G551D) above, with D550G counted along it

One experiment concerns the target T1, CFTR G551D/ΔF508 (Homo sapiens, UniProt P13569, G551D).
T1 construct: host or cells: primary human bronchial epithelial cells from CF patients heterozygous G551D/ΔF508, no corrector pre-treatment
As to the kind of experiment: TECC assay, primary bronchial epithelial cells, CFTR G551D/ΔF508. In kind it is cell-based. Particulars: primary bronchial epithelial cells heterozygous G551D/ΔF508, acute mode, increase in Isc after forskolin. As to the method:
The TECC (Tranepithelial Clamp Circuit, EP-design) assay measures the functionality of the cystic fibrosis Transmembrane Conductance regulator (CFTR) by measuring the short circuit current (Isc) generated over the basolateral and apical membrane of lung epithelial cells. In TECC the transepithelial potential PD and transepithelial resistance (Rt) are measured in an open circuit and transformed to Isc using Ohm's law. 24 Wells can be measured simultaneously allowing a higher throughput compared to Ussing chambers.
For this purpose, bronchial epithelial cells isolated from CF patients homozygous for the CFTR ΔF508 mutation (hAEC-CF, Epithelix) are plated on type IV collagen-coated Transwell® supports (Costar). Human airway epithelia are generated by provision of an air-liquid interface for 21 days to form well-differentiated polarized cultures that resemble in vivo pseudo-stratified ciliated epithelium (Fulcher, M. L., Gabriel, S., Burns, K. A., Yankaskas, J. R., Randell, S. H., 2005. Well-differentiated human airway epithelial cell cultures. Methods Mol. Med. 107, 183-206). In the case of the homozygous ΔF508 CFTR samples, the differentiated cells are treated with 3 μM VX809 (2626 South Loop West, Suite 225, Houston, Tex. 77054 USA, Cat n# S1565) to allow sufficient expression of properly folded CFTR protein on the membrane (48 hours basolateral treatment and 24 hours apical treatment), prior to electrophysiological recordings. For heterozygous G551D/ΔF508, differentiated cells are used as such for the recordings.
Information on the compounds can be retrieved on the homozygous ΔF508 CFTR samples looking at increased CFTR activity when compounds are added in an acute mode or in a chronic mode. On G551D/ΔF508 CFTR heterozygous samples compounds are added in an acute mode to the differentiated cells.
For the acute mode, for electrophysiological recording, the human airway epithelia are mounted in the TECC heating plate for electrophysiological measurement and kept at 37° C. The epithelia are bathed in a NaCl-Ringer solution (120 mM NaCl, 25 mM NaHCO3, 1.2 mM CaCl2, 1.2 mM MgCl2, 0.8 mM KH2PO4, 0.8 mM K2HPO4, pH 7.4, 5 mM glucose) on both the basolateral and apical sides. Apical amiloride is used to inhibit the endogenous ENaC currents while forkolin is applied on both apical and basolateral side to stimulate CFTR. After forskolin triggering, compounds are added on both sides to test their potential for increasing CFTR gating. Measurements are done during a 20 minute timeframe with recordings every 2 minutes. The increase in Isc is used as a measure for the increased CFTR activity, EC50 values can be generated by measuring impact of different concentrations of compound on Isc on primary cells, for this purpose each transwell is treated with a different compound concentration. Inh-172, an inhibitor specific for CFTR, is used to test the specificity of the tested compounds.
When subjected to this protocol, the following values were obtained. The difference between ΔIsc measured as DMSO (baseline), and the ΔIsc measured with the compound tested.
Turning to `Nc1cc(S(=O)(=O)c2ccc(OC(F)(F)F)cc2)cnc1C(=O)NCCO` [Compound 14, 3-amino-N-(2-hydroxyethyl)-5-{[4-(trifluoromethoxy)phenyl]sulfonyl}pyridine-2-carboxamide], the EC50 is 5300 nM.

In turn, `COC[C@H](O)CNC(=O)c1ncc(S(=O)(=O)c2ccc(C(F)(F)F)cc2)cc1N` [Compound 70, 3-amino-N-[(2R)-2-hydroxy-3-methoxypropyl]-5-{[4-(trifluoromethyl)phenyl]sulfonyl}pyridine-2-carboxamide] showed an EC50 of 3520 nM.

For the compound `Nc1cc(S(=O)(=O)c2ccc(OC(F)(F)F)cc2)cnc1C(=O)NCC(O)COCC1CC1` (stereo not drawn) [Compound 31, 3-amino-N-[3-(cyclopropylmethoxy)-2-hydroxypropyl]-5-{[4-(trifluoromethoxy)phenyl]sulfonyl}pyridine-2-carboxamide], the EC50 is 632 nM. Consider `C[C@H](O)CNC(=O)c1ncc(S(=O)(=O)c2ccc(C(F)(F)F)cc2)cc1N` [Compound 100, 3-amino-N-[(2S)-2-hydroxypropyl]-5-{[4-(trifluoromethyl)phenyl]sulfonyl}pyridine-2-carboxamide], for which the EC50 was determined as 2380 nM. In turn, `C[C@H](O)CNC(=O)c1ncc(S(=O)(=O)c2ccc(OC(F)(F)F)cc2)cc1N` [Compound 21, 3-amino-N-[(2S)-2-hydroxypropyl]-5-{[4-(trifluoromethoxy)phenyl]sulfonyl}pyridine-2-carboxamide] showed an EC50 of 847 nM. This EC50 is about 2.8-fold lower than that of the compound before. The compound `Nc1cc(S(=O)(=O)c2ccc(OC(F)(F)F)cc2)cnc1C(=O)NC[C@@H](O)C(F)(F)F` [Compound 37, 3-amino-N-[(2R)-3,3,3-trifluoro-2-hydroxypropyl]-5-{[4-(trifluoromethoxy)phenyl]sulfonyl}pyridine-2-carboxamide] displayed an EC50 of 232 nM. As to `Nc1cc(S(=O)(=O)c2ccc(F)cc2)cnc1C(=O)NC[C@@H](O)C(F)(F)F` [Compound 36, 3-amino-5-[(4-fluorophenyl)sulfonyl]-N-[(2R)-3,3,3-trifluoro-2-hydroxypropyl]pyridine-2-carboxamide], the midpoint of the response, the EC50, lay at 1010 nM. With `Nc1cc(S(=O)(=O)c2ccc(OC(F)(F)F)cc2)cnc1C(=O)N1CC(F)(F)C1` [Compound 40, (3-amino-5-{[4-(trifluoromethoxy)phenyl]sulfonyl}pyridin-2-yl)(3,3-difluoroazetidin-1-yl)methanone], the EC50 worked out at 443 nM. This EC50 is about 2.3-fold lower than that of the compound before.

The target of another experiment is ΔF508 CFTR (Homo sapiens, UniProt P13569, DEL508-508). Nature of the experiment: TECC assay, FRT-CFTR ΔF508 protocol. The experiment is classed as cell-based. The conditions noted are these: FRT cells stably transfected with ΔF508 CFTR, 3 μM VX809 24 hours, increase in transepithelial conductance (Gt), high expression cells. As to the method:
For ΔF508 recordings, Fischer Rat Thyroid (FRT) cells stably transfected with ΔF508 CFTR (cell line from Rosalind Franklin University of Medicine and Science, North Chicago, Ill.) are plated on Transwell® supports (Costar 6.5 mm diameter, 0.4 μm pore size Cat n#3378). The cells are grown for 8-10 days under liquid-liquid interface conditions prior to electrophysiological readings. The differentiated cells are treated with 3 μM VX809 (2626 South Loop West, Suite 225, Houston, Tex. 77054 USA, Cat n# S1565) to allow sufficient expression of properly folded CFTR protein on the membrane (24 hours basolateral treatment), prior to electrophysiological recordings. For electrophysiological recording, the FRT-ΔF508 cells are mounted in the TECC heating plate for electrophysiological measurement and kept at 37° C. The epithelia are bathed in HEPES buffered culturing medium without FBS on both the basolateral and apical sides. Apical amiloride is used to inhibit the endogenous ENaC currents while forkolin is applied on both apical and basolateral side to stimulate CFTR. After forskolin triggering, compounds are added on both sides to test their potential for increasing CFTR gating. Measurements are done during a 10 minute timeframe with recordings every 2 minutes. The increase in transepithelial conductance (Gt) is used as a measure for the increased CFTR activity, EC50 values can be generated by measuring impact of different concentrations of compound on Gt of the cells, for this purpose each transwell is treated with a different compound concentration. Inh-172, an inhibitor specific for CFTR, is used to test the specificity of the tested compounds.
Turning to `CC(O)(CNC(=O)c1ncc(S(=O)(=O)c2ccc(OC(F)(F)F)cc2)cc1N)C(F)(F)F` (stereo not drawn) [Compound 2, 3-amino-N-(3,3,3-trifluoro-2-hydroxy-2-methylpropyl)-5-{[4-(trifluoromethoxy)phenyl]sulfonyl}pyridine-2-carboxamide], a half-maximal response (EC50) required 70 nM. With `CC(C)(O)CNC(=O)c1ncc(S(=O)(=O)c2ccc(OC(F)(F)F)cc2)cc1N` [Compound 1, 3-amino-N-(2-hydroxy-2-methylpropyl)-5-{[4-(trifluoromethoxy)phenyl]sulfonyl}pyridine-2-carboxamide], the EC50 came out at 180 nM. This EC50 lies about 2.6-fold higher than the previous one.

Take `Nc1cc(S(=O)(=O)c2ccc(OC(F)(F)F)cc2)cnc1C(=O)NC[C@@H](O)C(F)(F)F` [Compound 37, 3-amino-N-[(2R)-3,3,3-trifluoro-2-hydroxypropyl]-5-{[4-(trifluoromethoxy)phenyl]sulfonyl}pyridine-2-carboxamide]: a half-maximal effect (EC50) was put at 10.4 nM. This EC50 lies about 17-fold lower than the previous one. Regarding `Nc1cc(S(=O)(=O)c2ccc(F)cc2)cnc1C(=O)NC[C@@H](O)C(F)(F)F` [Compound 36, 3-amino-5-[(4-fluorophenyl)sulfonyl]-N-[(2R)-3,3,3-trifluoro-2-hydroxypropyl]pyridine-2-carboxamide], the response was half-maximal at 63.2 nM (EC50).

The values above are taken from patent publication US10047051B2, “Substituted pyridines and method of use” (AbbVie S.á{acute over (.)}r.l., priority 2015, dated 2018).
